Source: paper PMC6245188, “Isolation and Characterization of Phenolic Compounds from the Leaves of Salix matsudana” (Molecules, 2008)
Where two headings read alike, the source gives them in different places.

Key:
COX-1 = biological target: T1, COX-1 (Ovis aries, UniProt P05979); test: Effect on cyclooxygenase-1 (PGE2 production from 14C-arachidonic acid, HPLC radioactivity detection); format: biochemical
T1 construct: purchased Cayman Chemical (Michigan, US)
T1 sequence (P05979 25-600): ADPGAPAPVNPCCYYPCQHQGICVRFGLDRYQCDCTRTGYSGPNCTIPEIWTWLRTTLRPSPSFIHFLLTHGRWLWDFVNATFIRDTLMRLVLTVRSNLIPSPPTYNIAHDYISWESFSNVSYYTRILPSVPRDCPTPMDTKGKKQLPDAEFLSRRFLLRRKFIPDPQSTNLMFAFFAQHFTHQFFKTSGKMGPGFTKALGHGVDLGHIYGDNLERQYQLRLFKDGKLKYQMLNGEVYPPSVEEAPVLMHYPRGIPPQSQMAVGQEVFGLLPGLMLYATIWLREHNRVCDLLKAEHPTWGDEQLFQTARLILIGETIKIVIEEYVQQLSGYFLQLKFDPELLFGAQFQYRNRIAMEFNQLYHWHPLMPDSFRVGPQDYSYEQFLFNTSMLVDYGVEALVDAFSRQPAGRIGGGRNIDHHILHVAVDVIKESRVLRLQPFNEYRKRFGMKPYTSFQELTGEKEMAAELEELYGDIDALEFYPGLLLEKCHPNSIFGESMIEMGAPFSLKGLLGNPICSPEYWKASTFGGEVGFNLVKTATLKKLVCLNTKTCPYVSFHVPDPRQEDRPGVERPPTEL
Method: (§1) COX-1 and COX-2 were purchased from Cayman Chemical (Michigan, US). The ^14C-labeled arachidonic acid (>200 µCi, NEN) was purchased from New England Nuclear Co. (Boston, US). Other chemicals and reagents were purchased from the Chinese Chemical Group (Beijing, P.R. China).
(§2) The effect of the tested compounds on cyclooxygenase-1 and -2 (COX-1 and -2) was determined by measuring PGE2 production. […] 1-^14C Arachidonic acid (10 µL) was added to start the reaction. The mixture was incubated for 30 min at 37 °C, then, the reaction was terminated by adding the reaction mixture (20 µL) to 30 µM indomethacin (200 µL). Arachidonic acid and its radio-labeled metabolites were separated and determined by reversed-phase HPLC using a Berthold radioactivity monitor. Inhibition refers to reduction of PGE2 formation, in comparison to a blank run without inhibitor. The results are means of three independent experiments.

COX-2 = biological target: T2, COX-2 (Homo sapiens, UniProt P35354); test: Effect on cyclooxygenase-2 (PGE2 production from 14C-arachidonic acid, HPLC radioactivity detection); format: biochemical; conditions: for IC50 / IC50 of COX-2: means of three determinations, 30 min at 37 °C, Tris-HCl pH 8.0, I.A. = Inactive; for inhibitory effect on COX-2 (in words): qualitative statement
T2 construct: purchased Cayman Chemical (Michigan, US)
T2 sequence (P35354 18-604): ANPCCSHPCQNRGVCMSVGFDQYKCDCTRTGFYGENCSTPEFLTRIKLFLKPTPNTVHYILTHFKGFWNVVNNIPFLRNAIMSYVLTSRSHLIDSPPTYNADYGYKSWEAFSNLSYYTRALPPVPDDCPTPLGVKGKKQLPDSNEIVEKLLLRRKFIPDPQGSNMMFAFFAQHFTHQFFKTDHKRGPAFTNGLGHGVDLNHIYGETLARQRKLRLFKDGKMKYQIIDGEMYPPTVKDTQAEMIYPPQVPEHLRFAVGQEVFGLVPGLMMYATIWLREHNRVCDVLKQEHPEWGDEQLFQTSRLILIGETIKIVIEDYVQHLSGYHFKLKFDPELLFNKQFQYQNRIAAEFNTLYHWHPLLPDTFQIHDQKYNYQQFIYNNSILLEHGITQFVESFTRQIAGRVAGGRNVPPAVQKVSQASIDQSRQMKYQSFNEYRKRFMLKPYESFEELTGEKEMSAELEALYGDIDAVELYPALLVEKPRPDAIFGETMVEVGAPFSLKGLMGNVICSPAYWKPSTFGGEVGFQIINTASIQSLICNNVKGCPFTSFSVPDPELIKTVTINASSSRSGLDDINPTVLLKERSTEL
Method: as §1, §2

[1] = means of three determinations, 30 min at 37 °C, Tris-HCl pH 8.0, I.A. = Inactive
[2] = means of three determinations, 30 min at 37 °C, Tris-HCl pH 8.0, I.A. = Inactive, read-out: IC50 of COX-1

| SMILES | IC50 of COX-1 (COX-1; [1]) | IC50 (COX-2) [µM] | inhibitory effect on COX-2 (in words) (COX-2) | IC50 (COX-1) [µM] | IC50 (COX-1; [2]) [µM] | IC50 of COX-2 (COX-2) |
| --- | --- | --- | --- | --- | --- | --- |
| O=c1cc(-c2ccc(O)cc2)oc2cc(O)ccc12 [Compound 6, 4',7-dihydroxyflavone] | I.A. | 58.8 | potent inhibitory effect |  |  |  |
| O=c1c(O[C@@H]2O[C@H](CO)[C@@H](O)[C@H](O)[C@H]2O)c(-c2ccc(O)c(O)c2)oc2cc(O)cc(O)c12 [Compound 3, isoquercitrin] |  |  |  | 103 |  |  |
| COc1ccc2c(=O)cc(-c3ccccc3)oc2c1 [Compound 4, 7-methoxyflavone] |  | 169 |  |  | 99.1 |  |
| O=c1cc(-c2ccc(O)c(O)c2)oc2cc(O)cc(O)c12 [Compound 2, luteolin] | I.A.^b |  |  |  |  | I.A. |
| CC(=O)c1ccc(OC2OC(CO)C(O)C(O)C2O)cc1 (stereo not drawn) [Compound 8, piceoside] |  |  |  |  | 217 | I.A. |
| O=c1cc(-c2ccc(O)c(O)c2)oc2cc(O[C@@H]3O[C@H](CO)[C@@H](O)[C@H](O)[C@H]3O)cc(O)c12 [Compound 5, luteolin 7-O-glucoside] |  | 39.1 | potent inhibitory effect |  | 92.3 |  |
| COc1cc(O)cc(OC)c1OC1OC(CO)C(O)C(O)C1O (stereo not drawn) [Compound 7, leonuriside A] |  | 200 |  |  | 195 |  |
| CC1(C)C=Cc2c(cc(O)c3c(=O)c(OC4OC(CO)C(O)C(O)C4O)c(-c4ccc(O)c(O)c4)oc23)O1 [Compound 1, 7,8-(2'', 2''-dimethylpyrano)-5, 3', 4'-trihydroxy-flavone-3-O-β-D-glucoside] |  | 27.3 | potent inhibitory effect |  | 153 |  |
